Experimental data reported in patent publication US20100168067A1, “BIOMARKERS FOR BISPHOSPHONATE-RESPONSIVE BONE DISORDERS” (UCL BUSINESS PLC, priority 2006, published 2010).

Tested on: total hip mineralisation in subjects treated for OP
[1] = response by genotype TT vs TG/GG at rs2297480, annualised change in total hip densitometry, 95% CI in brackets

Method: Genetic samples were obtained from subjects enrolled in an ongoing clinical programme for treatment of OP through the use of regular intravenous Pamidronate (30 mg three monthly).
By such methodology, 53 subjects (each with two densitometric estimates taken in the first 24 month of Pamidronate therapy) were respectively assigned drug response phenotypes according to their display of ongoing demineralisation (‘response failure’) or stable or improving mineralising (‘response success’). This was achieved by comparison of derived annualised rates of change in projected densitometric estimates of total hip mineralisation.
DNA was extracted from blood samples using standard organic phase methods and PCR amplification and DNA sequencing was carried out using standard protocols (dye-terminator sequencing using an ABI3100 automated DNA sequencer).

NCCC(O)(P(=O)(O)O)P(=O)(O)O [Pamidronate]
number of subjects with 'response failure' (ongoing demineralisation) (TT genotype at rs2297480, intravenous Pamidronate 30 mg three monthly, first 24 months, 53 subjects): 2
odds ratio for the >-2.7 cutoff [1]: 12.0833 (95% CI: 2.2961 to 63.5874)
odds ratio for the pos/neg cutoff [1]: 3.1818 (95% CI: 1.0192 to 9.9327)
